Data published in US20150374705A1, “Substances for treatment or relief of pain” (Shanghai Institues for Biological Sciences, priority 2012, published 2015).
“Also recorded” adds a separate entry of the source. Like-named read-outs stand apart in the source and are kept apart here.

Legend:
[1] = system: brain microvessel endothelial cells co-cultivated with astrocyte; assay: In vitro blood-brain barrier model (BBBM); format: in vitro ADME
From the text: Through in vitro blood-brain barrier model (BBBM), whether the substance to be measured could effectively pass blood brain barrier was detected. In this experiment, brain microvessl endothelial cells were co-cultivated with astrocyte, and then whether the substance to be measured could effectively pass cellular membrane was detected. For detailed method, please refer to related literature (Culot M et al., An in vitro blood-brain barrier model for high throughput (HTS) toxicological screening. Toxicol In Vitro. 2008 April; 22(3):799-811).

[2] = molecular target: T1, Human recombinant GABAA receptor containing α3 subunit (α3, β3, γ2) (Homo sapiens, UniProt P18507+P34903); assay: Competitive radioligand binding ([3H]Ro-0151788) on membranes of 293 cells, Ki; conditions: human recombinant GABAA subtype containing α3; read-out: Affinity, nM (α3)
T1 construct: expressed in transfected cells; host or cells: 293 cell line
Procedure: (§1) Different subunits of GABAA receptor were expressed in cell lines, including human kidney epithelial cell line, 293 cell line or L(tk−) cell line. The cells were cultured in medium, and such cells were used as the cellular model for screening drugs to suppress pain. a subunit, β subunit and γ subunit are indispensable for one complete functional GABAA receptor.
(§2) In this example, the inventors established the following cellular models:
(§3) (d) simultaneously expressing α3 subunit (for the protein sequence, see GenBank accession number NM_000808.3), β3 subunit and γ2 subunit in 293 cell line, forming the GABAA receptor containing α3 subunit;
(§4) Each of the (a) to (d) above could form a GABAA receptor with complete function.
(§5) Then, the cellular membrane was extracted and the protein concentration was measured. The competitive binding of the substances to be measured and radiolabelled compounds (e.g. 1 nM [^3H]Ro-0151788) were detected respectively to calculate the Ki value of the substances to be measured, see the method described in literature (Ballard T M et al., RO4938581, a novel cognitive enhancer acting at GABAA alpha5 subunit-containing receptors. Psychopharmacology (Berl). 2009 January; 202(1-3): 207-23). If the binding inhibition constant Ki (nM) of α5-GABAA receptor with the candidate substances in experimental group is less than the Ki of the receptor containing other a subunit (α1 subunit, α2 subunit or α3 subunit), then the candidate substance is a potential drugs for preventing, relieving or treating pain. Many methods can be used by those skilled in the art to evaluate the binding capacity of the ligand of α5-GABAA receptor to the α5-GABAA receptor, including but not limiting to the method above.

[3] = molecular target: T2, Human recombinant α5-GABAA receptor (Homo sapiens, UniProt P18507+P31644); assay: Electrophysiological inverse agonist efficacy on GABA-induced current; format: cell-based; conditions: change of GABA-induced current; negative = inhibition
T2 construct: expressed in transfected cells; host or cells: 293 cell line
Procedure: as §1
(a) simultaneously expressing α5 subunit (for the protein sequence, see GenBank accession number NM_001165037.1), β3 subunit (for the protein sequence, see GenBank accession number NM_021912.4) and γ2 subunit (for the protein sequence, see GenBank accession number NM_198904.2) in 293 cell line, forming the GABAA receptor containing α5 subunit;
(§6) The inventors used electrophysiological methods to measure the inverse agonist efficacy of the substances to be measured, see the method described in literature (Ballard T M et al., RO4938581, a novel cognitive enhancer acting at GABAA alpha5 subunit-containing receptors. Psychopharmacology (Berl). 2009 January; 202 (1-3): 207-23). […] Many methods can be used by those skilled in the art to evaluate the binding capacity of the ligand of α5-GABAA receptor to the α5-GABAA receptor, including but not limiting to the method above.
(§7) Inverse agonist efficacy represents the inhibition percentage of the candidate substance on the current induced by GABA through α5-GABAA receptor=(the current intensity induced by GABA through α5-GABAA receptor with the existence of candidate substance−the current intensity induced by GABA through α5-GABAA receptor without the existence of candidate substance)/the current intensity induced by GABA through α5-GABAA receptor without the existence of candidate substance.

[4] = molecular target: T2, Human recombinant α5-GABAA receptor; conditions: Jones et al. 2006; cited from earlier work
[5] = system: α5-GABAA receptor in central nervous system; conditions: in vivo, Jones et al. 2006; cited from earlier work
[6] = molecular target: T3, Human recombinant GABAA receptor containing α3 subunit (Homo sapiens, UniProt P18507+P34903); assay: Electrophysiological inverse agonist efficacy on GABA-induced current; format: cell-based; conditions: change of GABA-induced current; negative = inhibition
T3 construct: expressed in transfected cells; host or cells: 293 cell line
Procedure: as §1, §3, §6, §7

[7] = system: rat model of inflammatory and neuropathic pain; conditions: Munro G et al., Neuropharmacology 2011; cited from earlier work
[8] = human, Phase II, cited from earlier work
[9] = molecular target: T4, Human recombinant GABAA receptor containing α2 subunit (α2, β3, γ2) (Homo sapiens, UniProt P18507+P47869); assay: Competitive radioligand binding ([3H]Ro-0151788) on membranes of 293 cells, Ki; conditions: human recombinant GABAA subtype containing α2; read-out: Affinity, nM (α2)
T4 construct: expressed in transfected cells; host or cells: 293 cell line
Procedure: as §1, §2
(b) simultaneously expressing α1 subunit (GenBank accession number: NM_001127648.1), β3 subunit and γ2 subunit in 293 cell line, forming the GABAA receptor containing α1 subunit; • (c) simultaneously expressing α2 subunit (for the protein sequence, see GenBank accession number NM_000813.2), β3 subunit and γ2 subunit in 293 cell line, forming the GABAA receptor containing α2 subunit;
as §4, §5

Structure (SMILES)	Passing blood brain barrier [1]	Ki [2]	Inverse agonist efficacy, % (α5) [3]	Inverse agonist effect of α5-GABAA receptor [4]	Binding to α5-GABAA receptor in brain / inhibition of (3H)Ro-15-1788 binding in center [5]	Inhibition rate of the binding of (3H)Ro-15-1788 in center [5]	Inverse agonist efficacy, % (α3) [6]	Effect on treating pain reported in literature [7]	Toxicity in Phase II clinical trial [8]	Toxicity in Phase II clinical trial ([8]; listed as A5I)	Ki [9]
Cn1ncnc1COc1nn2c(-c3cc(CO)on3)nncc2c1C(C)(C)C [MRK016-M3, (3-(3-tert-butyl-2-((2-methyl-2H-1,2,4-triazol-3-yl)methoxy)pyrazolo [1,5-d][1,2,4]triazin-7-yl)isoxazol-5-yl)methanol]	cannot significantly pass blood brain barrier	0.69 nM	−52%	significant inverse agonist effect	not capable of binding the α5-GABAA receptor in brain; also recorded: cannot significantly inhibit; also recorded: could hardly enter into the brain	about 12%	−15%	–	–	–	–
Cc1cc(-c2nnc3c4ccccc4c(OCC4=CC(C)C=N4)nn23)no1 (stereo not drawn) [α5IA]	–	0.61 nM	−29%	–	–	–	4%	no effect	certain toxic problems	renal toxicity	0.58 nM
